For 7 compounds, DC50, IC50 and Kd results are on record in patent US20250115598A1 (Anaxis Pharma Pty Ltd, priority 2021, published 2025).

The target of one experiment is endogenous MLKL in U937 (Homo sapiens (Human), UniProt Q8NB16). As to the kind of experiment: Degradation assay: endogenous MLKL in U937 (western blot). Particulars: U937, 24 h incubation, read-out: Degradation of endogenous MLKL in U937 (DC50 cell-based assay). A digest of the protocol: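 Western blot band intensity of MLKL, adjusted to GAPDH loading and normalized to DMSO-only wells, gave percent degradation. Compound exposure lasted 24 h at final concentrations of 10–0.016 μM in 1:5 steps, in mouse dermal fibroblasts or human U937 cells.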
Chain of endogenous MLKL in U937 (Q8NB16 whole entry): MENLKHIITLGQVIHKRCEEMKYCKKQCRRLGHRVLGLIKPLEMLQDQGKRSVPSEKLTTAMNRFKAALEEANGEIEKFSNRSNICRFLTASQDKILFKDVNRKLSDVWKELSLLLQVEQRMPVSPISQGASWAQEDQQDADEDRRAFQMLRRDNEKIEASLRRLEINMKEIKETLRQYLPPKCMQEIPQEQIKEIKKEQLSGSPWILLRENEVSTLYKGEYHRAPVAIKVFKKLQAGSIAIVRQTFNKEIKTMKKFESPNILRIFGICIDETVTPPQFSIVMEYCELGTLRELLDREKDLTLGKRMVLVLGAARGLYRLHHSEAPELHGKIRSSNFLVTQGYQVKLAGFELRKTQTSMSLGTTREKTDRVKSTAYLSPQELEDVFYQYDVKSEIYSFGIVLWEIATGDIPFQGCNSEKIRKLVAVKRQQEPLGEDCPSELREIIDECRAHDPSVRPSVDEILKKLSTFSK
On the technique in general: Immunoblotting shows a protein as a band on a membrane.

Experiment [1] deals with U937 human histiocytic leukemia cell line. Put plainly: Cellular assay: inhibition of TSQ induced necroptosis, CellTitre-Glo viability. As to conditions: Homo sapiens, U-937; U937 cells, 48 hours, TSQ cocktail, Table 26; read-out: Inhibition of TSQ-induced necroptosis (IC50 cell-based assay). Here is the method: Cellular Assay: Screening Compounds for Inhibition of TSQ Induced Necroptosis, 384 Well Plate Format.
• Cell Line ID: U937 human histiocytic leukemia cell line. • Cell Concentration (cells/well): Final cell density is 20000 cells per well. • Cell growth medium: HT-RPMI medium+7.4% Fetal Bovine Serum (FBS). Cells are cultured in Corning 150 cm^2 tissue culture flasks with vented caps at 37° C./5% CO2. • Incubation: Plates were incubated at 37° C./5% CO2 in a humidified incubator for 48 hours following addition of compounds and death stimuli (TSQ cocktail). • Compound concentration: 36 μM starting concentration, 1:3 dilution, 10 point • DMSO final concentration (% v/v): 0.3%. Compounds in TSQ Cocktail (T: TNF; S: Smac Mimetic; Q: Q-VD-OPh) and their Final Concentrations: • hTNF-Fc (100 ng/ml)—produced by standard procedures as shown in Bossen et al., J. Biol. Chem., 2006, 281(20), 13964-13971. • Compound A (500 nM)—Smac mimetic, Tetralogic and SYNthesis med chem • Q-VD-OPh (10 μM)—MP Biomedicals
The cellular assay was carried out according to the following steps: • 1. Each well was prepared by sequential addition of: • a. DMSO (control; columns 1-2 and 23-24) or compound in DMSO—addition was performed using acoustic transfer of nL volumes of stock compound to give final test concentrations of 36, 12, 4, 1.3, 0.44, 0.148, 0.049, 0.016, 0.005 and 0.002 μM. All wells were backfilled with DMSO to a final total volume in the well of 100 nL. • b. Following compound/DMSO addition in step (a), 40 μL of cell suspension (5×10^5 cells/mL) was added to provide a final cell concentration of 20,000 cells per well, and • c. Following cell addition in step (b), 10 μL of 5×TSQ cocktail (except to positive controls; columns 1 and 23) was added to each well. • 2. After 48 hours, plate was removed from the 37° C. incubator and equilibrated to room temperature for 45 minutes. • 3.15 μL of room temperature CellTitre-Glo2™ (Promega™) was added to each well. • 4. Shook plates for 2 minutes (˜600 rpm) and incubated at room temperature for 15 minutes to allow signal to stabilise. • 5. Read luminescence readout on a plate reader.
Percent viability was calculated for each compound according to equation (2):
• Assay involving the TSQ cocktail (T: TNF; S: Smac mimetic; Q: Q-VD-OPh): TSQ treatment ensures that cells specifically undergo necroptotic cell death. TNF activates the TNF receptor, Smac mimetic directs the signal away from proinflammatory signaling and toward the RIPK1/RIPK3-mediated cell death pathways, and Q-VD-OPh ensures that the apoptotic response is blocked leaving only the programmed necrosis response. The compounds' activity (solution in DMSO) tested in this TSQ-induced assay was evaluated by determining the number of viable cells in culture by measuring the amount of ATP present as measured by CelltiterGlo. • Counter screen: In parallel, all compounds were tested for their ability to affect cell viability. The same U937 cells were treated with compound in DMSO without the TSQ cocktail. This counter screen enabled evaluation of off-target effects. In this case, cell viability was measured by CelltiterGlo.

For the next experiment, the target named is human MLKL (full length) (Homo sapiens (Human), UniProt Q8NB16). Put plainly: KINOMEscan binding assay, human MLKL (full length). Particulars: hMLKL, Table 25; read-out: MLKL (KD). The essentials:
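Tagged kinase + immobilized ligand beads + compound; eluted kinase quantified by qPCR. Kinase source: T7 phage lysate (BL21-derived E. coli, 32 °C) or HEK-293 with DNA tag. 11-pt 3-fold series, 1% DMSO, top 30,000 nM (most). Hill fit, slope −1 → Kd.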

For a further experiment, the system named is U937 cells. Put plainly: Counter screen: cell viability without the TSQ cocktail (off-target effect). Details: species or system human. Particulars: Homo sapiens, U-937, Table 26, read-out: Off-target effect (IC50 cell-based assay). The essentials: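 U937 cells (20000/well, HT-RPMI + 7.4% FBS) treated with compound (10-point 1:3 dilution from 36 μM, 0.3% DMSO) without the TSQ cocktail for 48 h at 37 °C/5% CO2. Viability read as ATP by CellTiter-Glo luminescence, flagging off-target cytotoxicity.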

Chain of human MLKL (full length) (Q8NB16 whole entry): as above

As to `Cc1ncsc1-c1ccc(CNC(=O)[C@@H]2C[C@@H](O)CN2C(=O)[C@@H](NC(=O)CCN2CC(n3cc(-c4cnc(N)c5c(-c6ccc(NS(=O)(=O)C(F)F)c(O[C@@H](C)c7ccc(F)cc7)c6)nn(C)c45)cn3)C2)C(C)(C)C)cc1` [Compound 1010, (2S,4R)-1-[(2S)-2-{3-[3-(4-{4-amino-3-[4-(difluoromethanesulfonamido)-3-[(1S)-1-(4-fluorophenyl)ethoxy]phenyl]-1-methyl-1H-pyrazolo[4,3-c]pyridin-7-yl}-1H-pyrazol-1-yl)azetidin-1-yl]propanamido}-3,3-dimethylbutanoyl]-4-hydroxy-N-{[4-(4-methyl-1,3-thiazol-5-yl)phenyl]methyl}pyrrolidine-2-carboxamide], the DC50 – broadly, the concentration at which degradation of the target reaches its halfway point – at endogenous MLKL in U937 is 1 to 10 µM. Also, the IC50 – broadly, the point on the concentration scale where inhibition reaches its midpoint – in experiment [1] is 1 to 10 µM; in the experiment with U937 cells, above 10 µM. Besides, the Kd (in general, the free concentration of one partner at which half of the binding sites on the other are occupied at equilibrium, for simple one-to-one binding) at human MLKL (full length) is below 0.01 µM.
In the case of `Cc1ncsc1-c1ccc(CNC(=O)[C@@H]2C[C@@H](O)CN2C(=O)[C@@H](NC(=O)CN2CCC(n3cc(-c4cnc(N)c5c(-c6ccc(NS(=O)(=O)C(F)F)c(O[C@@H](C)c7ccc(F)cc7)c6)nn(C)c45)cn3)C2)C(C)(C)C)cc1` (stereo partly drawn) [Compound 1011, (2S,4R)-1-[(2S)-2-{2-[3-(4-{4-amino-3-[4-(difluoromethanesulfonamido)-3-[(1S)-1-(4-fluorophenyl)ethoxy]phenyl]-1-methyl-1H-pyrazolo[4,3-c]pyridin-7-yl}-1H-pyrazol-1-yl)pyrrolidin-1-yl]acetamido}-3,3-dimethylbutanoyl]-4-hydroxy-N-{[4-(4-methyl-1,3-thiazol-5-yl)phenyl]methyl}pyrrolidine-2-carboxamide], at endogenous MLKL in U937, the 50% degradation concentration (DC50) is 1 to 10 µM. The IC50 in experiment [1] is 1 to 10 µM; in the experiment on U937 cells it was above 10 µM.
Take `Cc1ncsc1-c1ccc(CNC(=O)[C@@H]2C[C@@H](O)CN2C(=O)[C@@H](NC(=O)COCCOCCOCCn2cc(-c3cnc(N)c4c(-c5ccc(NS(=O)(=O)C(F)F)c(O[C@@H](C)c6ccc(F)cc6)c5)nn(C)c34)cn2)C(C)(C)C)cc1` [Compound 1009, (2S,4R)-1-[(2S)-2-[2-(2-{2-[2-(4-{4-amino-3-[4-(difluoromethanesulfonamido)-3-[(1S)-1-(4-fluorophenyl)ethoxy]phenyl]-1-methyl-1H-pyrazolo[4,3-c]pyridin-7-yl}-1H-pyrazol-1-yl)ethoxy]ethoxy}ethoxy)acetamido]-3,3-dimethylbutanoyl]-4-hydroxy-N-{[4-(4-methyl-1,3-thiazol-5-yl)phenyl]methyl}pyrrolidine-2-carboxamide]: the 50% degradation concentration (DC50) on endogenous MLKL in U937 was in the range of 1 to 10 µM. The IC50 in experiment [1] is below 1 µM; in the experiment on U937 cells it was 1 to 10 µM. Also, the equilibrium dissociation constant (Kd) at human MLKL (full length) is below 0.01 µM.
As to `CCS(=O)(=O)Nc1ccc(-c2n[nH]c3c(-c4cnn(CCOCCOCC(=O)N[C@H](C(=O)N5C[C@H](O)C[C@H]5C(=O)NCc5ccc(-c6scnc6C)cc5)C(C)(C)C)c4)cnc(N)c23)cc1OCc1ccc(F)cc1` [Compound 1005, (2S,4R)-1-[(2S)-2-[2-(2-{2-[4-(4-amino-3-{4-ethanesulfonamido-3-[(4-fluorophenyl)methoxy]phenyl}-1H-pyrazolo[4,3-c]pyridin-7-yl)-1H-pyrazol-1-yl]ethoxy}ethoxy)acetamido]-3,3-dimethylbutanoyl]-4-hydroxy-N-{[4-(4-methyl-1,3-thiazol-5-yl)phenyl]methyl}pyrrolidine-2-carboxamide], on endogenous MLKL in U937, the DC50 was 1 to 10 µM. Further, the IC50 in experiment [1] was 1 to 10 µM; in the experiment on U937 cells, above 10 µM. In addition, at human MLKL (full length), the Kd is below 0.01 µM.
As to `Cc1ncsc1-c1ccc(CNC(=O)[C@@H]2C[C@@H](O)CN2C(=O)[C@@H](NC(=O)CCN2CCC(n3cc(-c4cnc(N)c5c(-c6ccc(NS(=O)(=O)C(F)F)c(O[C@@H](C)c7ccc(F)cc7)c6)nn(C)c45)cn3)C2)C(C)(C)C)cc1` (stereo partly drawn) [Compound 1012, (2S,4R)-1-[(2S)-2-{3-[3-(4-{4-amino-3-[4-(difluoromethanesulfonamido)-3-[(1S)-1-(4-fluorophenyl)ethoxy]phenyl]-1-methyl-1H-pyrazolo[4,3-c]pyridin-7-yl}-1H-pyrazol-1-yl)pyrrolidin-1-yl]propanamido}-3,3-dimethylbutanoyl]-4-hydroxy-N-{[4-(4-methyl-1,3-thiazol-5-yl)phenyl]methyl}pyrrolidine-2-carboxamide], on endogenous MLKL in U937, the half-maximal degradation concentration (DC50) is 1 to 10 µM. Besides, the IC50 is 1 to 10 µM in experiment [1] and above 10 µM in the experiment on U937 cells. The dissociation constant (Kd) on human MLKL (full length) was below 0.01 µM.
`Cc1ncsc1-c1ccc(CNC(=O)[C@@H]2C[C@@H](O)CN2C(=O)[C@@H](NC(=O)CCN2CCC(n3cc(-c4cnc(N)c5c(-c6ccc(NS(=O)(=O)C(F)F)c(O[C@@H](C)c7ccc(F)cc7)c6)nn(C)c45)cn3)CC2)C(C)(C)C)cc1` [Compound 1017, (2S,4R)-1-[(2S)-2-{3-[4-(4-{4-amino-3-[4-(difluoromethanesulfonamido)-3-[(1S)-1-(4-fluorophenyl)ethoxy]phenyl]-1-methyl-1H-pyrazolo[4,3-c]pyridin-7-yl}-1H-pyrazol-1-yl)piperidin-1-yl]propanamido}-3,3-dimethylbutanoyl]-4-hydroxy-N-{[4-(4-methyl-1,3-thiazol-5-yl)phenyl]methyl}pyrrolidine-2-carboxamide]: on endogenous MLKL in U937, the DC50 lay within 1 to 10 µM. The IC50 in experiment [1] is 1 to 10 µM; with U937 cells, above 10 µM. Besides, the dissociation constant (Kd) at human MLKL (full length) was below 0.01 µM.
Consider `CCS(=O)(=O)Nc1ccc(-c2n[nH]c3c(-c4cnn(CCCCCCC(=O)N[C@H](C(=O)N5C[C@H](O)C[C@H]5C(=O)NCc5ccc(-c6scnc6C)cc5)C(C)(C)C)c4)cnc(N)c23)cc1OCc1ccc(F)cc1` [Compound 1003, (2S,4R)-1-[(2S)-2-{7-[4-(4-amino-3-{4-ethanesulfonamido-3-[(4-fluorophenyl)methoxy]phenyl}-1H-pyrazolo[4,3-c]pyridin-7-yl)-1H-pyrazol-1-yl]heptanamido}-3,3-dimethylbutanoyl]-4-hydroxy-N-{[4-(4-methyl-1,3-thiazol-5-yl)phenyl]methyl}pyrrolidine-2-carboxamide], for which the DC50 on endogenous MLKL in U937 lay in the range of 1 to 10 µM. Moreover, the IC50 (in experiment [1]; in the experiment on U937 cells) was above 10 µM each time. Besides, on human MLKL (full length), the equilibrium dissociation constant (Kd) was below 0.01 µM.
